Several values for one entry are separate records, joined by “and”; a condition that tells them apart may be missing. Identical values can stand only once.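 How tested: cells in 96-well plates exposed to compound for 48 hours at five concentrations. At the GI50, growth is halved. TGI: concentration producing complete growth inhibition.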 *1 amine or outer side, *2 acyl side, *3 side chain or, on linkers, in order; H or OH if unused. Where a SMILES comes first, the peptide text is derived from it. Bridges are numbered along the chain shown (N, C = ends). [ ]: non-standard residue; d: D form. The star is where a group is joined. X38 = CC[C@H](C)[C@@H](N[*:1])[C@@H](O)CC(=O)[*:2]; NMeY = CN[C@@H](Cc1ccc(O)cc1)C(=O)O; dNMeL = CN[C@H](CC(C)C)C(=O)O; Hiv = CC(C)[C@H](O)C(=O)O; Pyruvoyl = CC(=O)C(=O)*; Cbz = O=C(OCc1ccccc1)*; OBn = c1ccc(CO*)cc1
How the values were obtained:
Assay in all cases: NCI tumour cell line growth inhibition, 48 h
[1] = test system: COLO 205 colon
[2] = test system: TK-10 renal
[3] = test system: PC-3 prostate
[4] = test system: UO-31 renal
[5] = test system: T-47D breast
[6] = test system: SR leukemia
[7] = test system: OVCAR-5 ovarian
[8] = test system: BT-549 breast
[9] = test system: HOP-92 NSCLC
[10] = test system: MALME-3M melanoma

Compound | TGI [1] | TGI [2] | TGI [3] | TGI [4] | TGI [5] | TGI [6] | TGI [7] | TGI [8] | TGI [9] | TGI [10] | GI50 [1] | GI50 [2] | GI50 [3] | GI50 [4] | GI50 [5] | GI50 [7] | GI50 [8] | GI50 [9] | GI50 [10]
COc1ccc(/C=C(\Cl)c2ccc(OC)c(OC)c2)cc1OC | > 100 µM | > 100 µM | > 100 µM | > 100 µM | > 100 µM | > 100 µM | > 100 µM | > 100 µM | > 100 µM | > 100 µM | – | – | – | – | – | – | – | – | –
C[C@H]1[C@H](C)N(Cc2ccccc2)P(=O)(C(O)/C=C/c2ccccc2)N1Cc1ccccc1 (some centres not stated) | 17.4 µM | 24.1 µM | 13 µM | 10.7 µM | 22.9 µM | 20.5 µM | 18.8 µM | > 25 µM | 19.7 µM | 13.4 µM | – | – | – | – | – | – | – | – | –
COC(=O)CNC(=O)C(C)NC(=O)C(CC(=O)OCc1ccccc1)NC(=O)OCc1ccccc1 (stereo not drawn) (Cbz-Asp(OBn)-Ala-Gly-OMe; configuration not given here) | > 100 µM | > 100 µM | > 100 µM | 62.8 µM | 70.3 µM | > 100 µM | > 100 µM | > 100 µM | > 100 µM | > 100 µM | – | – | – | – | – | – | – | – | –
COc1cc2cc(C(=O)N3CC(CCl)c4c3cc(NC(=O)C(C)(C)c3ccccc3[N+](=O)[O-])c3ccccc43)[nH]c2c(OC)c1OC (configuration not stated) | – | – | 35.9 µM and 206 µM | – | – | > 600 µM | – | 30.4 µM and 213 µM | – | – | 204 µM | 18.3 µM | 19.4 µM | 26.2 µM | 61.5 µM | 119 µM | 26.1 µM | 222 µM | 103 µM
O=c1[nH]c(=O)n(C2OC(CO)C(O)C(F)C2O)cc1F (configuration not stated) | > 100 µM | > 100 µM | > 100 µM | > 100 µM | > 100 µM | 76.4 µM | > 100 µM | > 100 µM | > 100 µM | > 100 µM | – | – | – | – | – | – | – | – | –
Cc1c2ccncc2cc2c1sc1ccncc12 | 12.1 µM | 36 µM | 10.5 µM | 8.04 µM | 7.44 µM | 1.67 µM | 19.7 µM | 17.6 µM | 46.9 µM | 15 µM | – | – | – | – | – | – | – | – | –
COc1ccccc1C1CC(=O)CC(c2ccccc2OC)C12C(=O)NC(=S)NC2=O (configuration not stated) | > 100 µM | > 100 µM | > 100 µM | > 100 µM | > 100 µM | > 100 µM | > 100 µM | > 100 µM | > 100 µM | > 100 µM | – | – | – | – | – | – | – | – | –
CCOC(=O)C(c1c[nH]c2ccccc12)(c1c[nH]c2ccccc12)c1c[nH]c2ccccc12 | 39.2 µM | > 100 µM | 71.2 µM | > 100 µM | 54.2 µM | 80 µM | > 100 µM | > 100 µM | > 100 µM | 78.1 µM | – | – | – | – | – | – | – | – | –
COc1cc2c(/C=C3/C(=O)Nc4ccc(Cl)cc43)c(Cl)n(Cc3ccccc3)c2cc1C | 6.36 µM | 3.76 µM | 22.2 µM | 6.78 µM | 13.9 µM | 5.9 µM | 7.06 µM | 22.6 µM | 25.9 µM | 4.38 µM | – | – | – | – | – | – | – | – | –
COc1ccc(Br)c2c1CC(C(=O)O)CC2 (configuration not stated) | > 100 µM | > 100 µM | > 100 µM | > 100 µM | > 100 µM | > 100 µM | > 100 µM | > 100 µM | > 100 µM | > 100 µM | – | – | – | – | – | – | – | – | –
CCOC(=O)CCC(NC(=O)Cc1ccc(Nc2nc3ccccc3nc2-c2ccccc2)cc1)C(=O)OCC (configuration not stated) | > 100 µM | 58.5 µM | > 100 µM | > 100 µM | > 100 µM | > 100 µM | > 100 µM | > 100 µM | 45.8 µM | > 100 µM | – | – | – | – | – | – | – | – | –
O=C1CSC2(CC(/C=C/c3ccccc3O)=NN2c2cccc(S(=O)(=O)O)c2)N1c1nc2ccccc2s1 (configuration not stated) | > 100 µM | 58.5 µM | > 100 µM | 98.9 µM | 65.4 µM | 49.5 µM | 64.4 µM | 77 µM | > 100 µM | > 100 µM | – | – | – | – | – | – | – | – | –
CCCCc1ccc(Nc2nc(Cl)c3c(ncn3COCCOC(C)=O)n2)cc1 | 45.5 µM | 41.8 µM | 37.4 µM | 33.7 µM | 34.6 µM | 47.3 µM | 37.5 µM | 31.4 µM | 43.6 µM | 36.9 µM | – | – | – | – | – | – | – | – | –
C[C@@]12C=CC3C/C(=N\C(N)=S)C=C(CCCC4OCCO4)[C@]3(CC1)C2 (some centres not stated) | 26 µM | 49.4 µM | 50.7 µM | 38.9 µM | 57.9 µM | 60.7 µM | 33.3 µM | 51.9 µM | > 100 µM | 37.6 µM | – | – | – | – | – | – | – | – | –
O=C1NC(N2CCOCC2)=N/C1=C\c1cccs1 | > 100 µM | > 100 µM | > 100 µM | > 100 µM | > 100 µM | > 100 µM | > 100 µM | > 100 µM | > 100 µM | > 100 µM | – | – | – | – | – | – | – | – | –
O=S1(=O)c2cnccc2NC(=NCc2cccc3ccccc23)N1c1ccccc1 | > 100 µM | > 100 µM | > 81.8 µM | > 100 µM | > 100 µM | > 100 µM | > 100 µM | > 100 µM | > 100 µM | > 100 µM | – | – | – | – | – | – | – | – | –
Fc1c(F)c(C(F)(F)F)c(F)c(F)c1N/N=C\c1c[nH]c2ccccc12 | 2.71 µM | 15.6 µM | 8.01 µM | 3.85 µM | 18.7 µM | 9.19 µM | 14.3 µM | 7.09 µM | 16.5 µM | 16.1 µM | – | – | – | – | – | – | – | – | –
O=C(O)C(=C\c1ccc2c(c1)OCO2)/C(=C/c1ccc2c(c1)OCO2)C(=O)O | > 100 µM | > 100 µM | > 100 µM | > 100 µM | > 100 µM | > 100 µM | > 100 µM | > 100 µM | > 100 µM | > 100 µM | – | – | – | – | – | – | – | – | –
CC(C)=CCOc1cc(NC(=S)c2ccoc2C)ccc1Cl | > 100 µM | > 100 µM | > 100 µM | > 100 µM | > 100 µM | > 100 µM | > 100 µM | > 100 µM | > 100 µM | > 100 µM | – | – | – | – | – | – | – | – | –
O=C1c2cc3c(cc2CC12Cc1cc4c(cc1C2=O)CCCC4)CCCC3 | > 100 µM | 75.8 µM | > 100 µM | > 100 µM | 89.1 µM | > 100 µM | > 100 µM | > 100 µM | 50.6 µM | > 100 µM | – | – | – | – | – | – | – | – | –
CC1=C(C(=O)Nc2cccc3c2C(=O)NC3=O)CC(C(=O)Nc2cccc3c2C(=O)NC3=O)=C(C)N1 | > 100 µM | > 100 µM | > 100 µM | > 100 µM | > 100 µM | > 100 µM | > 100 µM | > 100 µM | > 100 µM | > 100 µM | – | – | – | – | – | – | – | – | –
COc1cc(OCc2ccc3nc(-c4ccccc4)c(N)nc3c2)cc(OC)c1OC | 30.1 µM | 50.3 µM | 45.4 µM | 34.6 µM | 42.5 µM | 43.8 µM | 55.3 µM | 49 µM | 50 µM | 32.4 µM | – | – | – | – | – | – | – | – | –
NCCCCNCCCN1CC1 | 3.71 µM | > 100 µM | > 100 µM | 12.8 µM | 3.46 µM | 52.9 µM | > 82.9 µM | 17.4 µM | 7.47 µM | > 91.9 µM | – | – | – | – | – | – | – | – | –
c1csc(-c2cscc2-c2ccsc2)c1 | > 100 µM | > 100 µM | > 77.9 µM | > 100 µM | > 100 µM | > 95.9 µM | > 100 µM | > 100 µM | > 100 µM | 95 µM | – | – | – | – | – | – | – | – | –
CCOC(=O)c1ccc(C(=O)OCC)n1-c1cc2cc(c1)CSCc1cc(cc(-n3c(C(=O)OCC)ccc3C(=O)OCC)c1)CSC2 | > 10 µM | > 10 µM | > 10 µM | > 10 µM | > 10 µM | > 10 µM | > 10 µM | > 10 µM | > 10 µM | > 10 µM | – | – | – | – | – | – | – | – | –
CC[C@H](C)[C@H]1NC(=O)[C@@H](NC(=O)[C@@H](CC(C)C)N(C)C(=O)[C@@H]2CCCN2C(=O)C(C)=O)[C@@H](C)OC(=O)[C@H](Cc2ccc(OC)cc2)N(C)C(=O)[C@@H]2CCCN2C(=O)[C@H](CC(C)C)NC(=O)[C@H](C(C)C)OC(=O)C[C@@H]1O (Pyruvoyl-P[dNMeL]T[X38][Hiv]LP[NMeY](Me); ester 3-C) | 0.00621 µM | 0.0643 µM | 0.261 µM | 0.137 µM | 0.0113 µM | 0.607 µM | 0.167 µM | 0.0181 µM | 0.374 µM | 0.107 µM | – | – | – | – | – | – | – | – | –
Cc1nc2sc(CCl)nn2c(=O)c1Cl | 32.2 µM | 25 µM | 25.1 µM | 27.6 µM | 28.3 µM | 26.2 µM | 28.7 µM | 15.6 µM | 18.7 µM | 24.9 µM | – | – | – | – | – | – | – | – | –
NC(=O)C(Nc1c(Cl)cccc1Cl)c1cc2cc(Br)ccc2nc1Cl (configuration not stated) | > 100 µM | 96.3 µM | > 100 µM | > 100 µM | > 100 µM | 56.5 µM | > 100 µM | > 100 µM | > 100 µM | > 100 µM | – | – | – | – | – | – | – | – | –
Fc1cc(C2=C[C@H](c3ccc(Cl)cc3)NC(=S)N2)c(Cl)cc1Cl | > 100 µM | > 100 µM | > 100 µM | > 100 µM | > 100 µM | > 100 µM | > 100 µM | > 100 µM | > 100 µM | > 100 µM | – | – | – | – | – | – | – | – | –
